Test results: patent US20200216416A1, “QUINOLINE COMPOUNDS AS INHIBITORS OF TAM AND MET KINASES” (Array BioPharma Inc., priority 2019, published 2020)

Assays:
[1] = biological target: T1, His-tagged recombinant human MER cytoplasmic domain (Homo sapiens, UniProt Q12866); assay: MER Enzyme Assay (LanthaScreen Eu Kinase Binding); conditions: averaged IC50; MER 5 nM; 60-minute incubation at 22° C.; TR-FRET
T1 construct: His-tagged recombinant human MER cytoplasmic domain
T1 sequence (Q12866 527-999 limits assumed): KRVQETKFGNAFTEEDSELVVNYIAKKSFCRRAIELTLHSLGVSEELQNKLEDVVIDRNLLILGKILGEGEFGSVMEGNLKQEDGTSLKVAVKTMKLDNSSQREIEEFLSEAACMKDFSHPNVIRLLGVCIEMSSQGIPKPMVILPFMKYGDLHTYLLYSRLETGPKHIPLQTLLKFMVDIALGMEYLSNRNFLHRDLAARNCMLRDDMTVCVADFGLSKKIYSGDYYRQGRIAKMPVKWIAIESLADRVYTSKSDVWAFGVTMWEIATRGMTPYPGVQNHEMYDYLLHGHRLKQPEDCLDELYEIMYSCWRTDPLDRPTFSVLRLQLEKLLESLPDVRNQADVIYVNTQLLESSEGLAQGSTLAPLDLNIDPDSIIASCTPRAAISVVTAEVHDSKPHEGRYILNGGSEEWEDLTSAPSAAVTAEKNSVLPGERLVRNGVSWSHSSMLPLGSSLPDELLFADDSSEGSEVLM
Method in brief: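 TR-FRET binding: 5 nM His-MER cytoplasmic domain with 20 nM Tracer 236, 2 nM biotin-anti-His and 2 nM Eu-streptavidin in pH 7.4 HEPES, 10 mM MgCl2, 2% DMSO, with threefold compound dilutions, 60 min at 22 °C. Percent of control was fit to a 4-parameter logistic, and IC50 was taken at 50 POC.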

[2] = biological target: T2, GST-tagged recombinant human TYRO3 kinase domain (Homo sapiens, UniProt Q06418); assay: TYRO3 Enzyme Assay (LanthaScreen Eu Kinase Binding); conditions: averaged IC50; TYRO3 5 nM; 60-minute incubation at 22° C.; TR-FRET
T2 construct: GST-tagged recombinant human TYRO3 kinase domain; purchased Carna PR7480A
T2 sequence (Q06418 518-790 limits assumed): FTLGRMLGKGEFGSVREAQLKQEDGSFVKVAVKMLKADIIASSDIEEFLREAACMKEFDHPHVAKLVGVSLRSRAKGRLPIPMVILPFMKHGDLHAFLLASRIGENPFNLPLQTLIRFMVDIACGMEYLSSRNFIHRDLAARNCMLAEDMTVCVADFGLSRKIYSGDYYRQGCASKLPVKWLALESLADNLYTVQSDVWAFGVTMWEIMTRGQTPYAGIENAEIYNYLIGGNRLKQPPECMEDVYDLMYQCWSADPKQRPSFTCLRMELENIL
Method in brief: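 Competitive tracer-displacement TR-FRET: 5 nM kinase, 20 nM Alexa-Fluor Tracer 236 and 2 nM Eu-anti-GST with threefold-diluted compound in 25 mM HEPES pH 7.4, 10 mM MgCl2, 0.01% Triton X-100, 2% DMSO, 60 min at 22° C. Ratiometric percent of control fitted to a 4-parameter logistic; IC50 at 50 POC.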

[3] = biological target: T3, MET (wt) GST-tagged recombinant human MET kinase domain (Homo sapiens, UniProt P08581); assay: c-Met Enzyme Assay, wild type (LanthaScreen Eu Kinase Binding); conditions: averaged IC50; MET (wt) 10 nM; 60-minute incubation at 22° C.; read-out: SigChem WT IC50
T3 construct: GST-tagged recombinant human MET kinase domain; purchased Signal Chem
T3 sequence (P08581 1078-1345 limits assumed): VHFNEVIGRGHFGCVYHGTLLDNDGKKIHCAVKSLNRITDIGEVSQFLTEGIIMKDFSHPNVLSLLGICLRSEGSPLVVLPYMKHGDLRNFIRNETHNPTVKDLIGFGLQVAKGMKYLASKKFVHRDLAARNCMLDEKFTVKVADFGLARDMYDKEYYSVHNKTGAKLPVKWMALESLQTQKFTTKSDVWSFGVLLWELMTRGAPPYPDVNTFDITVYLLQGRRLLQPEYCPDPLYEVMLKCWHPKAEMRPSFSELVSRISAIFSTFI
Method in brief: (§1)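 GST-tagged recombinant MET kinase domain was incubated with 50 nM Alexa-Fluor tracer 236, 2 nM Eu-anti-GST and compound in 25 mM HEPES pH 7.4, 10 mM MgCl2, 0.01% Triton X-100, 1 mM DTT, 2% DMSO for 60 min at 22 °C. TR-FRET ratio gave percent of control, fitted 4-parameter; IC50 at 50 POC.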

[4] = biological target: T4, human MET kinase L1195V (Homo sapiens, UniProt P08581, L1195V); assay: c-Met Enzyme Assay, L1195V mutant; assay type: binding; conditions: averaged IC50; L1195V 10 nM; 60-minute incubation at 22° C.
T4 construct: GST-tagged recombinant human MET kinase domain; purchased Signal Chem
T4 sequence (P08581 1078-1345 L1195V limits assumed): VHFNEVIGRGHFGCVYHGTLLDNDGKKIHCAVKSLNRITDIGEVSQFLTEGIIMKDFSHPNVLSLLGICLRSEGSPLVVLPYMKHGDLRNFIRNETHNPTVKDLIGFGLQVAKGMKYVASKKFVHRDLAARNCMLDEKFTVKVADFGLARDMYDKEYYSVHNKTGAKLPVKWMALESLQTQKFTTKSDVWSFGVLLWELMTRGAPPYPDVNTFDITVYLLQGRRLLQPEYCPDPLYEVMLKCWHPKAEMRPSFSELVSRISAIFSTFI
Method in brief: as §1

[5] = biological target: T5, human MET kinase Y1230C (Homo sapiens, UniProt P08581, Y1230C); assay: c-Met Enzyme Assay, Y1230C mutant; assay type: binding; conditions: averaged IC50; Y1230C 2 nM; 60-minute incubation at 22° C.; read-out: Y1230 C IC50
T5 construct: GST-tagged recombinant human MET kinase domain; purchased Signal Chem
T5 sequence (P08581 1078-1345 Y1230C): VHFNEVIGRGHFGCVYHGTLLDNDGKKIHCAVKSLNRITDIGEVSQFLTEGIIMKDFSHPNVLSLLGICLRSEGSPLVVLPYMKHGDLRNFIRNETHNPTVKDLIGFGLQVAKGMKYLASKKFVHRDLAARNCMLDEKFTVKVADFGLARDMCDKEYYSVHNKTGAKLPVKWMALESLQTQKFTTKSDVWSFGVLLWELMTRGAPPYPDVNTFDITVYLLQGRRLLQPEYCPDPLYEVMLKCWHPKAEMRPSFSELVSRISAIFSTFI
Method in brief: as §1

[6] = biological target: T6, human MET kinase Y1230H (Homo sapiens, UniProt P08581, Y1230H); assay: c-Met Enzyme Assay, Y1230H mutant; assay type: binding; conditions: averaged IC50; Y1230H 5 nM; 60-minute incubation at 22° C.; read-out: Y1230 H IC50
T6 construct: GST-tagged recombinant human MET kinase domain; purchased Signal Chem
T6 sequence (P08581 1078-1345 Y1230H): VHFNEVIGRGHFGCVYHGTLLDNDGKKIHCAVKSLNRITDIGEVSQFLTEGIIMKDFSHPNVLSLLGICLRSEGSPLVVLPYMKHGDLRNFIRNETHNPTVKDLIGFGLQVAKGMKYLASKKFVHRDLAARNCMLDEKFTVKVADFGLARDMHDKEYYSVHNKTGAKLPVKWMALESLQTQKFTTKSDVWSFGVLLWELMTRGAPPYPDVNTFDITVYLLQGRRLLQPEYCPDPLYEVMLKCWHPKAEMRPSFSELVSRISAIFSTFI
Method in brief: as §1

Row | Structure (SMILES) | IC50 [1] [nM] | IC50 [2] [nM] | IC50 [3] [nM] | IC50 [4] [nM] | IC50 [5] [nM] | IC50 [6] [nM]
1 | COc1cc2nccc(Oc3ccc(NC(=O)c4cn(C)c(C(C)C)c(-c5ccc(F)cc5)c4=O)nc3)c2cc1OC [Example 45, N-(5-((6,7-dimethoxyquinolin-4-yl)oxy)pyridin-2-yl)-5-(4-fluorophenyl)-6-isopropyl-1-methyl-4-oxo-1,4-dihydropyridine-3-carboxamide] | 27 | 91 | 4.4 | 41.4 | 4.4 | 9.9
2 | COc1ccc2nccc(Oc3ccc(NC(=O)c4cn(CCN(C)C)cc(-c5ccc(F)cc5)c4=O)nc3)c2c1 [Example 47] | 7 | 56 | 10.2 | 414 | 8.8 | 29.4
3 | COc1cc2c(Oc3ccc(NC(=O)c4cn(C(C)C)cc(-c5ccc(F)cc5)c4=O)nc3)ccnc2cc1F [Example 49, N-(5-((7-fluoro-6-methoxyquinolin-4yl)oxy)pyridin-2-yl)-5-(4-fluorophenyl)-1-isopropyl-4-oxo-1,4-dihydropyridine-3-carboxamide] | 5 | 58 | 27 | 459 | 39 | 112
4 | CC(C)n1cc(C(=O)Nc2ccc(Oc3ccnc4cc(OC(F)(F)F)ccc34)cn2)c(=O)c(-c2ccc(F)cc2)c1 [Example 50, 5-(4-fluorophenyl)-1-isopropyl-4-oxo-N-(5-((7-(trifluoromethoxy)quinolin-4-yl)oxy)pyridin-2-yl)-1,4-dihydropyridine-3-carboxamide] | 79 | 470 | 59.2 | 1030 | 199 | 397
5 | CCOc1ccc2nccc(Oc3ccc(NC(=O)c4cn(C(C)C)cc(-c5ccc(F)cc5)c4=O)nc3)c2c1 [Example 51, N-(5-((6-ethoxyquinolin-4-yl)oxy)pyridin-2-yl)-5-(4-fluorophenyl)-1-isopropyl-4-oxo-1,4-dihydropyridine-3-carboxamide] | 14 | 112 | 22.2 | 495 | 61.8 | 200
6 | CCOc1ccc2c(Oc3ccc(NC(=O)c4cn(C(C)C)cc(-c5ccc(F)cc5)c4=O)nc3)ccnc2c1 [Example 52, N-(5-((7-ethoxyquinolin-4-yl)oxy)pyridin-2-yl)-5-(4-fluorophenyl)-1-isopropyl-4-oxo-1,4-dihydropyridine-3-carboxamide] | 11 | 18 | 14.7 | 73.6 | 13.1 | 32.6
7 | COc1cc2nccc(Oc3cnc(NC(=O)c4cn(C(C)C)cc(-c5ccc(F)cc5)c4=O)nc3)c2cc1OC [Example 54, N-(5-((6,7-dimethoxyquinolin-4-yl)oxy)pyrimidin-2-yl)-5-(4-fluorophenyl)-1-isopropyl-4-oxo-1,4-dihydropyridine-3-carboxamide] | 10 | 21 | 4.7 | 14.7 | 4.3 | 7.2
8 | COc1cc2nccc(Oc3cnc(NC(=O)c4cn(C(C)C)c(C)c(-c5ccc(F)cc5)c4=O)nc3)c2cc1OC [Example 55, N-(5-((6,7-dimethoxyquinolin-4-yl)oxy)pyrimidin-2-yl)-5-(4-fluorophenyl)-1-isopropyl-6-methyl-4-oxo-1,4-dihydropyridine-3-carboxamide] | 5 | 8 | 2.8 | 5.1 | 2.2 | 2.8
9 | COc1cc2c(Oc3ccc(NC(=O)c4cn(C(C)C)cc(-c5ccc(F)cc5)c4=O)nc3)ccnc2cc1OCCCN1CCOCC1 [Example 56, 5-(4-fluorophenyl)-1-isopropyl-N-(5-((6-methoxy-7-(3-morpholinopropoxy)quinolin-4-yl)oxy)pyridin-2-yl)-4-oxo-1,4-dihydropyridine-3-carboxamide] | 6 | 10 | 3.9 | 5.3 | 3.2 | 5.2

Results, then the compound that gave them:

Row | IC50 [1] [nM] | IC50 [2] [nM] | IC50 [3] [nM] | IC50 [4] [nM] | IC50 [5] [nM] | IC50 [6] [nM] | Structure (SMILES)
10 | 5 | 11 | 1.4 | 14.2 | 1.4 | 2.9 | COc1cc2nccc(Oc3ccc(NC(=O)c4cn(CCN(C)C)cc(-c5ccc(F)c(F)c5)c4=O)nc3)c2cc1OC [Example 43, 5-(3,4-difluorophenyl)-N-(5-((6,7-dimethoxyquinolin-4-yl)oxy)pyridin-2-yl)-1-]
11 | 3 | 4 | 2.2 | 18.9 | 1.7 | 2.7 | COc1cc2nccc(Oc3ccc(NC(=O)c4cn(CCN(C)C)cc(-c5ccc(F)cc5F)c4=O)nc3)c2cc1OC [Example 44, 5-(2,4-difluorophenyl)-N-(5-((6,7-dimethoxyquinolin-4-yl)oxy)pyridin-2-yl)-1-(2-(dimethylamino)ethyl)-4-oxo-1,4-dihydropyridine-3-carboxamide]
12 | 2 | 5 | 3 | 21.9 | 1.7 | 3.4 | COc1cc2nccc(Oc3ccc(NC(=O)c4cn(CCN(C)C)cc(-c5ccc(F)cc5)c4=O)nc3)c2cc1OC [Example 46]
13 | 5 | 10 | 6.8 | 31.7 | 9.4 | 15.8 | COc1cc2c(Oc3ccc(NC(=O)c4cn(C(C)C)c(C)c(-c5ccc(F)cc5)c4=O)nc3)ccnc2cc1F [Example 48, N-(5-((7-fluoro-6-methoxyquinolin-4yl)oxy)pyridin-2-yl)-5-(4-fluorophenyl)-1-isopropyl-6-methyl-4-oxo-1,4-dihydropyridine-3-carboxamide]
14 | 2 | 6 | 2.7 | 35 | 2.2 | 5.3 | COc1cc2nccc(Oc3ccc(NC(=O)c4cn(C(C)C)cc(-c5ccc(F)cc5)c4=O)cn3)c2cc1OC [Example 58, N-(6-((6,7-dimethoxyquinolin-4-yl)oxy)pyridin-3-yl)-5-(4-fluorophenyl)-1-isopropyl-4-oxo-1,4-dihydropyridine-3-carboxamide]
